Experiment [1] has as its target T1, human HDAC2 (Homo sapiens, UniProt Q92769).
T1 construct: purchased BPS Bioscience 50002
The experiment can be described thus: HDAC2 inhibitor enzymatic assay, % inhibition at fixed concentration. In kind it is biochemical. As to conditions: read-out: %inhibition of HDACs at 10µM of test compound HDAC2; 10 µM compound; mean of two replicates.

Experiment [2] concerns the target T2, human HDAC11 (Homo sapiens, UniProt Q96DB2).
T2 sequence (Q96DB2 1-347): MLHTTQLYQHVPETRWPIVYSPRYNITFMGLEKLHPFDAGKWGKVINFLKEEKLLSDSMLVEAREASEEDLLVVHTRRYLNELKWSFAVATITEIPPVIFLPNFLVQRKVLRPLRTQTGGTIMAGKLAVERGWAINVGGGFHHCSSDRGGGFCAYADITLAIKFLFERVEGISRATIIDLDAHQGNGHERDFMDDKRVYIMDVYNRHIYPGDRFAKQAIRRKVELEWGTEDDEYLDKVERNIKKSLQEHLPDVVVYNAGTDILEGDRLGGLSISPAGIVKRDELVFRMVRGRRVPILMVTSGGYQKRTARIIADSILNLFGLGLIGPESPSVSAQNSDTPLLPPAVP
Kind of experiment: HDAC11 inhibitor enzymatic assay, % inhibition at fixed concentration. Particulars: read-out: %inhibition of HDACs at 10µM of test compound HDAC11.

Experiment [3] addresses human HDAC3/NCOR2 (Homo sapiens, UniProt O15379). Kind of experiment: HDAC3/NCOR2 inhibitor enzymatic assay, % inhibition at fixed concentration. Particulars: read-out: %inhibition of HDACs at 10µM of test compound HDAC3.
Experiment [4] addresses T3, human HDAC6 (Homo sapiens, UniProt Q9UBN7).
T3 sequence (Q9UBN7 1-1215): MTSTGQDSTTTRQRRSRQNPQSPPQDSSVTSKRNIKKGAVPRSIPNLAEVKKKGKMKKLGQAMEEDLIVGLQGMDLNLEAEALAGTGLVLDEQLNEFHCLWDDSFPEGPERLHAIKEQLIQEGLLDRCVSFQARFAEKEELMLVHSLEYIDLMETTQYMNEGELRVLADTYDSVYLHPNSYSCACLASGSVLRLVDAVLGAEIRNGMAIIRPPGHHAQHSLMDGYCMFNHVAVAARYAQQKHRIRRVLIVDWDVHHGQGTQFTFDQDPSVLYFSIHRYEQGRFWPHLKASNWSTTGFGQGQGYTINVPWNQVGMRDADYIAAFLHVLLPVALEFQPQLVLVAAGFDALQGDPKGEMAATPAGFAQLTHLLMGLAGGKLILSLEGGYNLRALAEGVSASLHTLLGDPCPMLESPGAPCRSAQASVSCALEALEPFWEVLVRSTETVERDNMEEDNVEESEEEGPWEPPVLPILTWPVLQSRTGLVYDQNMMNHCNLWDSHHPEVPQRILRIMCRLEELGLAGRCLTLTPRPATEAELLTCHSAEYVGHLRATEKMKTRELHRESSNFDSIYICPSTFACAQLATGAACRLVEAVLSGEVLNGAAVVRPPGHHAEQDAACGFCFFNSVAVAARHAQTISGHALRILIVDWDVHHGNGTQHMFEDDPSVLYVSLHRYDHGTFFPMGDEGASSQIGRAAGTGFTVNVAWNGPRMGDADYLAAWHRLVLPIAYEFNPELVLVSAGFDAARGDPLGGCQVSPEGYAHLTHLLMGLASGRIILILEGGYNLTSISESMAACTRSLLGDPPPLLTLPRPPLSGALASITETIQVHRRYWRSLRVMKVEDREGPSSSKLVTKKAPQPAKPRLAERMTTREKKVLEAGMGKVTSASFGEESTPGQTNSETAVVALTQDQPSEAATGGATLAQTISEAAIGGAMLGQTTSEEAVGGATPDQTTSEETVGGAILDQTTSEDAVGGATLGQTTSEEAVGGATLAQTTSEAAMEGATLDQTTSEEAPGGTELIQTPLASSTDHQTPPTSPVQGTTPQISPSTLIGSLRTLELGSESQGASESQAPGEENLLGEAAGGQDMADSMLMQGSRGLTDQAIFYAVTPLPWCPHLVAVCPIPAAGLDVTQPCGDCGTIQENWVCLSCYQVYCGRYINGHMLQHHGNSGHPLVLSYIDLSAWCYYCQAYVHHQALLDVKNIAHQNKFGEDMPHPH
Kind of experiment: IC50 of the test inhibitor against HDAC6 (10-dose enzymatic assay). It is filed as biochemical. Particulars: for activity at 0.0003 µM: 0.0003 µM compound; for activity at 0.001 µM: 0.001 µM compound; for activity at 0.003 µM: 0.003 µM compound; for activity at 0.01 µM: 0.01 µM compound; for activity at 0.03 µM: 0.03 µM compound; for activity at 0.1 µM: 0.1 µM compound; for activity at 0.3 µM: 0.3 µM compound; for activity at 1 µM: 1 µM compound; for activity at 3 µM: 3 µM compound; for activity at 10 µM: 10 µM compound. Details: purchased BPS Bioscience 50006.

Experiment [5] has as its target T4, human HDAC8 (Homo sapiens, UniProt Q9BY41).
T4 construct: purchased BPS Bioscience 50008
T4 sequence (Q9BY41 1-377): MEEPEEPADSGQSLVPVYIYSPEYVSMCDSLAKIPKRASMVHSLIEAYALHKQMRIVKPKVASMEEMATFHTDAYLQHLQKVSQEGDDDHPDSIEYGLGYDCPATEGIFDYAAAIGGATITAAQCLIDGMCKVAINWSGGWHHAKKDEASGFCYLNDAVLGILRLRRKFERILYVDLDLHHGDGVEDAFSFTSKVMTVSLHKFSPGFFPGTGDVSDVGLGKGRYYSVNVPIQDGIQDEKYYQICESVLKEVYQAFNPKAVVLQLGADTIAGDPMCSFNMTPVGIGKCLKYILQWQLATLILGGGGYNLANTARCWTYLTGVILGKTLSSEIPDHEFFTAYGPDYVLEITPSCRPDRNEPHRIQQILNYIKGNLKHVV
The experiment can be described thus: HDAC8 inhibitor enzymatic assay, % inhibition at fixed concentration. In kind it is biochemical. As to conditions: read-out: %inhibition of HDACs at 10µM of test compound HDAC8; 10 µM compound.

Where [6] appears, read: Repeat1, read-out: HDAC6 % Activity Repeat1.
Setting [7] is: Repeat2, read-out: HDAC6 % Activity Repeat2.

Read-outs that look alike come from different tables or passages of the source.

T1 sequence (Q92769 whole entry): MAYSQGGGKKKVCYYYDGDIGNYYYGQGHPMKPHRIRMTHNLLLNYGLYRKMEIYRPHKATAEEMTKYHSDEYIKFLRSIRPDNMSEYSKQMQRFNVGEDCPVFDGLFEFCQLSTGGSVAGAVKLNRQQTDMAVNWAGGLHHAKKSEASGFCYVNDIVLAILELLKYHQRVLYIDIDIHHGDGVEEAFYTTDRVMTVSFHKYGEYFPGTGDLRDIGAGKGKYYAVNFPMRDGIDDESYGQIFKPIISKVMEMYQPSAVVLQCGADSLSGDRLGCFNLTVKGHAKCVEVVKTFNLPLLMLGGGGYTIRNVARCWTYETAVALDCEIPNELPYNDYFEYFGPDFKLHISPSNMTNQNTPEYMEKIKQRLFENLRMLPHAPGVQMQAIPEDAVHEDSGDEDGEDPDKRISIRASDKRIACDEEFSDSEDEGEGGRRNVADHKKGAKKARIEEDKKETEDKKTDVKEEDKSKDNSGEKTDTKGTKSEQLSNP
Sequence of human HDAC3/NCOR2 (O15379 whole entry): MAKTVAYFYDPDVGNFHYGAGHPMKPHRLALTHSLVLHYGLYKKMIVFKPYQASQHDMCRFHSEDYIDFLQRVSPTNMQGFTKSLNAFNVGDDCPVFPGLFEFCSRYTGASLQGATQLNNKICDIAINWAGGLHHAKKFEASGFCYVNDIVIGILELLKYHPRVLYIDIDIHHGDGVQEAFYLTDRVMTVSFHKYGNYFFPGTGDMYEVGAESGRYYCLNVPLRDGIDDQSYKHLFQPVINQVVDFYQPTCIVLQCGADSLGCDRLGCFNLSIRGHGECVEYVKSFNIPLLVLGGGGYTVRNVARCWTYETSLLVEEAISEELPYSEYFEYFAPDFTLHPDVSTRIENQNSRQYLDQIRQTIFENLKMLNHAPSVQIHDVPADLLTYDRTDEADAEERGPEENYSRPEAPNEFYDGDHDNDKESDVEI
Sequence of human HDAC3/NCOR2 (Q9Y618 395-489 partner limits assumed): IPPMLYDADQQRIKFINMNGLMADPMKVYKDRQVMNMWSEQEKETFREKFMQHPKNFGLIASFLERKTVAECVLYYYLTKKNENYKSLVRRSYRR

The inhibition is how much of the control response was suppressed. Take `O=C(CCCSc1nc2ccccc2n1Cc1ccccc1)NO` [Compound 10a, 4-((1-benzyl-1H-benzo[d]imidazol-2-yl)thio)-N-hydroxybutanamide]: the inhibition at 10 µM in experiment [1] is 19%. Further, the inhibition at 10 µM in experiment [2] came to 6%. For the same compound, in experiment [3], the inhibition at 10 µM was determined as 37%. Further, in experiment [4] (setting [6]), the activity at 0.0003 µM came out at 100%, the activity at 0.001 µM was 98%, the activity at 0.003 µM worked out at 100% and the activity at 0.01 µM was found to be 95%. For the same compound, in experiment [4] (setting [6]), the activity at 0.03 µM amounted to 93%, the activity at 0.1 µM was 86%, the activity at 0.3 µM amounted to 61% and the activity at 1 µM was found to be 33%. In experiment [4] (setting [6]), the activity at 3 µM worked out at 13% and the activity at 10 µM was found to be 5%. In addition, in experiment [4] (setting [7]), the activity at 0.0003 µM worked out at 99%, the activity at 0.001 µM was determined as 100%, the activity at 0.003 µM is 95% and the activity at 0.01 µM turned out to be 100%. In addition, in experiment [4] (setting [7]), the activity at 0.03 µM is 94%, the activity at 0.1 µM is 82%, the activity at 0.3 µM is 63% and the activity at 1 µM worked out at 33%. Besides, in experiment [4] (setting [7]), the activity at 3 µM stood at 14% and the activity at 10 µM is 5%. Also, the inhibition at 10 µM in experiment [5] is 56%.

(Values after PMC6522981, “Structure-based design generated novel hydroxamic acid based preferential HDAC6 lead inhibitor with on-target cytotoxic activity against primary choroid plexus carcinoma” (Journal of Enzyme Inhibition and Medicinal Chemistry, 2019).)
